Data published in publication PMC11555501 (ACS Pharmacology & Translational Science, 2024).
Each block holds one compound with its values, some of them ahead of it. Non-standard residues stand in square brackets, D forms with d. Residues, ends and D or L forms follow the SMILES beside them. *: point of attachment. X1 = CN(C)c1ccc2c(c1)Oc1cc(N(C)C)ccc1C21OC(=O)c2ccc(C(=O)*)cc21; Bip = N[C@@H](Cc1ccc(-c2ccccc2)cc1)C(=O)O; Lauroyl = CCCCCCCCCCCC(=O)*

Legend:
[1] = Stability of Tam-labeled peptides in Calu-3 cell culture supernatant
Experimental: (§1) Peptide solutions were diluted as described above and incubated at 37 °C. Samples were precipitated in 2× ACN/EtOH (1:1, v/v) at −20 °C overnight and filtered through Costar Spin-X tubes. The solutions of Tam-labeled peptides diluted with H2O (1:1, v/v) were analyzed by RP-HPLC using a linear gradient of eluent B (0.1% TFA in H2O) in eluent A (0.08% TFA in ACN) over 40 min at 40 °C on a VariTide RPC column (250 mm × 4.6 mm, 200 Å, 6 μm, flow rate 1 mL/min, Agilent Technologies). The relative amount of intact peptide was determined by fluorescence intensity (extinction 525 nm, emission 572 nm). Half-life was calculated by one-phase decay in Prism 10. Furthermore, eluting peptides were collected, lyophilized, and analyzed by MALDI-ToF-MS.
HEK-293 cells were cultivated under standard conditions in Dulbecco’s modified Eagle’s medium (DMEM, Biowest)/Ham’s F12 (Biowest, 1:1, v/v) with 15% fetal bovine serum (FBS, Sigma-Aldrich). HEK-293 cells were detached with trypsin/ethylenediaminetetraacetic acid (Lonza) and seeded in a poly-D-lysine hydrobromide (Merck, 0.1 mg/mL)-coated 96-well cell culture microplate (Greiner Bio-One, 100,000 cells/well). The cells were grown under standard conditions. […] Cell differentiation was supported by culturing cells on an air–liquid interface for 10–14 days and monitored by measurement of transepithelial electrical resistance. […]

[2] = Stability of Tam-labeled peptides in HEK-293 cell culture supernatant; format: in vitro ADME; details: for half-life at 10 μM: DMEM with 15% FBS on HEK-293 cells
Experimental: The cells were grown under standard conditions. […] The medium was replaced with the peptide solutions.

[3] = Stability of Tam-labeled peptides in human blood plasma (RP-HPLC fluorescence, MALDI-ToF-MS); details: for remaining at 72 h, 10 μM / half-life at 10 μM: human
Experimental: as §1

[4] = HEK-293 supernatant (phenol red-free DMEM with 15% FBS); details: up to 72 h
[5] = human blood plasma/DPBS (1:1); details: 37 °C, up to 72 h

cleavage products detected by MALDI-ToF MS, Calu-3 supernatant ([1]; HPLC eluents): strong C- and N-terminal truncation
cleavage products detected by MALDI-ToF MS, HEK-293 supernatant ([2]; HPLC eluents): no cleavage was observed
metabolised at 72 h, 10 μM ([2]; human, HEK-293 cell culture supernatant, 10 μM peptide, DMEM with 15% FBS, 72 h, read-out: degradation over 72 h in HEK-293 supernatant): < 10%
cleavage products detected by MALDI-ToF MS, blood plasma ([3]; HPLC eluents): no cleavage was observed
remaining at 72 h, 10 μM ([3]; human blood plasma): ~90%
Compound: CCCCCCCC(=O)NC[C@H](NC(=O)[C@H](CO)NC(=O)CN)C(=O)N[C@@H](Cc1ccccc1)C(=O)N[C@@H](CC(C)C)C(=O)N[C@@H](CO)C(=O)N1CCC[C@H]1C(=O)N[C@@H](CCC(=O)O)C(=O)N[C@@H](Cc1c[nH]cn1)C(=O)N[C@@H](CCC(N)=O)C(=O)N[C@@H](CCCNC(=N)N)C(=O)N[C@H](C(=O)N[C@@H](CCC(N)=O)C(=O)N[C@@H](CCC(N)=O)C(=O)N[C@@H](CCCNC(=N)N)C(=O)N[C@@H](CCCCNC(=O)c1ccc2c(c1)C1(OC2=O)c2ccc(N(C)C)cc2Oc2cc(N(C)C)ccc21)C(=O)N[C@@H](CCC(=O)O)C(=O)N[C@@H](CO)C(=O)N[C@@H](CCCCN)C(=O)N[C@@H](CCCCNC(=O)CCCCCCCCCCCCCCCCC(=O)O)C(=O)N1CCC[C@H]1C(=O)N1CCC[C@H]1C(=O)N[C@@H](C)C(=O)N[C@@H](CCCCN)C(=O)N[C@@H](CC(C)C)C(=O)N[C@@H](CCC(N)=O)C(=O)N1CCC[C@H]1C(=O)N[C@@H](CCCNC(=N)N)C(=O)O)C(C)C [peptide 4, [Dpr^3,K^16(Tam),K^20(Odd)]-Ghr]

half-life at 10 μM ([2]; human, 10 μM peptide): 57.1 h
half-life at 10 μM ([3]; human blood plasma diluted with DPBS (1:1), blood plasma half-life, human blood plasma/DPBS (1:1), 10 μM peptide, 37 °C, one-phase decay): 50.5 h
half-life at 10 μM ([3]; human blood plasma diluted with DPBS (1:1), donor plasma 3, half-life in plasma 3, donor comparison, plasma 3, plasma/DPBS (1:1), 10 μM, 37 °C): 57.4 h
Compound: CCCCCCCC(=O)NC[C@H](NC(=O)[C@H](CO)NC(=O)CN)C(=O)N[C@@H](Cc1ccccc1)C(=O)N[C@@H](CC(C)C)C(=O)N[C@@H](CO)C(=O)N1CCC[C@H]1C(=O)N[C@@H](CCC(=O)O)C(=O)N[C@@H](Cc1c[nH]cn1)C(=O)N[C@@H](CCC(N)=O)C(=O)N[C@@H](CCCNC(=N)N)C(=O)N[C@H](C(=O)N[C@@H](CCC(N)=O)C(=O)N[C@@H](CCC(N)=O)C(=O)N[C@@H](CCCNC(=N)N)C(=O)N[C@@H](CCCCNC(=O)c1ccc2c(c1)C1(OC2=O)c2ccc(N(C)C)cc2Oc2cc(N(C)C)ccc21)C(=O)N[C@@H](CCC(=O)O)C(=O)N[C@@H](CO)C(=O)N[C@@H](CCCCN)C(=O)N[C@@H](CCCCN)C(=O)N1CCC[C@H]1C(=O)N1CCC[C@H]1C(=O)N[C@@H](C)C(=O)N[C@@H](CCCCN)C(=O)N[C@@H](CC(C)C)C(=O)N[C@@H](CCC(N)=O)C(=O)N1CCC[C@H]1C(=O)N[C@@H](CCCNC(=N)N)C(=O)O)C(C)C [peptide 3, [Dpr^3,K^16(Tam)]-Ghr]

Compound: CCCCCCCCCCCC(=O)NCCCC[C@H](N)C(=O)N[C@H](C(=O)N[C@@H](CC(N)=O)C(=O)N1CCC[C@H]1C(=O)N[C@@H](CCCCNC(=O)c1ccc2c(c1)C1(OC2=O)c2ccc(N(C)C)cc2Oc2cc(N(C)C)ccc21)C(=O)N[C@@H](Cc1ccc(-c2ccccc2)cc1)C(=O)N[C@@H](CCCNC(=N)N)C(=O)N[C@@H](CC(C)C)C(=O)N[C@@H](CCCNC(=N)N)C(=O)N[C@@H](Cc1ccc(O)cc1)C(N)=O)[C@@H](C)CC [peptide 2, [K^27(Lau),K^31(Tam)]-sNPY(27–36)] (H-K(Lauroyl)INPK(X1)[Bip]RLRY-NH2; N-terminus assumed)
stability in Calu-3 supernatant compared to HEK-293 supernatant [1]: only slightly lower
half-life at 10 μM ([2]; human, 10 μM peptide): 23.3 h
half-life at 10 μM ([3]; plasma): 3.2 h
remaining at 72 h, 10 μM ([3]; plasma): 3%

not cleaved [4]: degradation of less than 10% over 72 h
not cleaved [5]: around 90% intact peptide after 72 h
Compound: GS-Dpr(Oct)-FLSPEHQRVQQRK(Tam)ESKK(Odd)PPAKLQPR
